Reference: patent US7642283B2, “Mitochrondrial permeability transition pore affinity labels and modulators” (Hoffmann-La Roche Inc., priority 2003, dated 2010)

Assays:
MPTP [1] = system: T1, MPTP; experiment: Ca2+-induced swelling in deenergized liver mitochondria; format: biochemical; conditions: n=2; 30 min after addition of 200 μM Ca2+; read-out: EC50 of MPTP inhibition in deenergized mitochondria
T1 construct: other: n=2; 30 min after addition of 200 μM Ca2+

MPTP [2] = experiment: MPTP induced by phenylarsineoxide or ATR; format: biochemical
Cyp-D = Cyp-D (Homo sapiens, UniProt P30405); experiment: Cyp-D peptidyl prolyl cis-trans isomerase enzymatic activity; format: biochemical; conditions: at concentrations completely blocking MPTP
MPTP [3] = target: T2, MPTP (Rattus norvegicus, UniProt Q9Z2L0); experiment: Ca2+-induced swelling in rat brain mitochondria; format: biochemical; conditions: 80 μM CaCl2; potency in the range of liver mitochondria
T2 construct: other: n=2; glutamate/malate; other: glutamate/malate; 20 min; mean±SEM; unit not given; other: 300 nM; relieved by 50 μM Ub5
Protocol: (§1) The effect of Spiro[cyclopentane-1,5′-[5H]dibenzo[a,d]cyclohepten]-2-one,10′,11′-dihydro-3-methylene- at inhibiting MPTP was also investigated in mitochondria isolated from rat forebrain. […] Due to the difficulties mentioned above, the effect of Spiro[cyclopentane-1,5′-[5H]dibenzo[a,d]cyclohepten]-2-one,10′,11′-dihydro-3-methylene- on MPTP in brain mitochondria was more accurately investigated by subjecting mitochondria isolated from rat forebrain to a series of Ca^2+ pulses (5 μM, ˜150 nmol mg protein^−1) and by monitoring extramitochondrial Ca^2+ or using fluororescent probes.

MPTP [4] = target: T2, MPTP; experiment: Ca2+-retention capacity of rat brain mitochondria (Calcium Green-5N); format: biochemical; conditions: 1 μM compound; 5 μM Ca2+ pulses; mean±SEM of 3; control 530±70
Protocol: FIG. 4: (A) Effect of Spiro[cyclopentane-1,5′-[5H]dibenzo[a,d]cyclohepten]-2-one,10′,11′-dihydro-3-methylene- and CsA on Ca^2+-retention capacity of rat brain mitochondria. The incubation medium contained 0.2 M sucrose, 10 mM Tris-Mops, pH 7.4, 1 mM Pi-Tris, 5 μM EGTA and 5 mM glutamate/2.5 mM malate, buffered to pH 7.4 with Tris, containing 0.01% (w/v) bovine serum albumin and 1 μM Calcium Green-5N. The final volume was 2.5 ml. Trace (a) control, (b) 1 μM CsA, (c) 1 μM Spiro[cyclopentane-1,5′-[5H]dibenzo[a,d]cyclohepten]-2-one,10′,11′-dihydro-3-methylene- and (d) 1 μM CsA plus 1 μM Spiro[cyclopentane-1,5′-[5H]dibenzo[a,d]cyclohepten]-2-one,10′,11′-dihydro-3-methylene-. Each fluorescence spike corresponds to addition of 5 μM Ca^2+. (B) Comparison of Ca^2+-retention capacity in liver (a) and brain mitochondria (b).
Effect of Spiro[cyclopentane-1,5′-[5H]dibenzo[a,d]cyclohepten]-2-one,10′,11′-dihydro-3-methylene- and CsA on Ca^2+-retention capacity of rat brain mitochondria (FIG. 4). Measurement of extramitochondrial Ca^2+ was determined using a Perkin-Elmer LS-50B fluorimeter controlled by the FL WinLab computer program. […] The final volume was 2.5 ml and the cuvette was thermostated at 25° C. Brain mitochondria were then subjected to a train of 5 μM Ca^2+ additions (˜150 nmol mg protein^−1). Extramitochondrial Ca^2+ was monitored at excitation/emission wavelengths of 505-535. […] The Ca^2+-retention capacity in liver (a) and brain mitochondria (b) were also compared (FIG. 4B).
as §1

MPTP [5] = target: T2, MPTP; experiment: Ca2+-induced depolarisation (membrane potential, Rhodamine-123) of rat brain mitochondria; format: biochemical
Protocol: (B) Ca^2+-induced depolarisation of rat brain mitochondria. The medium used was as in the legend to FIG. 4, except that 0.5 μM Rhodamine-123 was added instead of Calcium Green-5N, and MPTP was induced by addition of 20 μM Ca^2+. Trace a, control (Ca^2+ alone), b, 300 nM Spiro[cyclopentane-1,5′-[5H]dibenzo[a,d]cyclohepten]-2-one,10′,11′-dihydro-3-methylene-, c, 300 nM Spiro[cyclopentane-1,5′-[5H]dibenzo[a,d]cyclohepten]-2-one,10′,11′-dihydro-3-methylene- and 50 μM Ub5.
The effect of Spiro[cyclopentane-1,5′-[5H]dibenzo[a,d]cyclohepten]-2-one,10′,11′-dihydro-3-methylene- at inhibiting MPTP was also investigated in mitochondria isolated from rat forebrain. […] Due to the difficulties mentioned above, the effect of Spiro[cyclopentane-1,5′-[5H]dibenzo[a,d]cyclohepten]-2-one,10′,11′-dihydro-3-methylene- on MPTP in brain mitochondria was more accurately investigated by subjecting mitochondria isolated from rat forebrain to a series of Ca^2+ pulses (5 μM, ˜150 nmol mg protein^−1) and by monitoring extramitochondrial Ca^2+ or using fluororescent probes. […] Virtually identical results were obtained from experiments where Δψm was monitored after a series of Ca^2+ additions (5 μM each). Each Ca^2+ additions caused a reversible decreases in Δψm, until MPTP opening completely collapsed Δψm and no further fluorescence increase could observed after addition of the protonophore FCCP.

VDAC1 = target: T3, VDAC1 (Rattus norvegicus, UniProt Q9Z2L0); experiment: Affinity labeling of rat mitochondria with the tritiated spiro compound, SDS-PAGE and fluorography; format: binding; conditions: rat brain and liver mitochondria; 10 nM radiolabel; increasing concentration
T3 construct: from tissue; host or cells: Percoll-purified rat brain and liver mitochondria
Protocol: FIG. 6: Affinity-labeling of isolated rat brain (A) and liver (B) mitochondria. Mitochondrial preparations were incubated in the presence of 10 nM Spiro[cyclopentane-1,5′-[5H]dibenzo[a,d]cyclohepten]-2-one,10′,11′-t2-10′,11′-dihydro-3-methylene- for 15 min at 25° C. in presence or absence of various concentrations of Spiro[cyclopentane-1,5′-[5H]dibenzo[a,d]cyclohepten]-2-one,10′,11′-dihydro-3-methylene-(unlabeled). Samples were submitted to SDS-PAGE (see Experimental Procedures section for details) and fluorography. The fluorograms of the gels are shown. The molecular mass scale (kDa) is shown in the ordinate.
(§2) FIG. 8: (A) Effect of monobromobimano (MBBM) and phenylarsino oxide (PhAO) on VDAC1 labeling by Spiro[cyclopentane-1,5′-[5H]dibenzo[a,d]cyclohepten]-2-one,10′,11′-t2-10′,11′-dihydro-3-methylene- in rat brain mitochondria. Experimental conditions were as in the legend to FIG. 5. (B) Effect of various MPTP inhibitors, atractyloside (ATR) and DIDS on VDAC1 labeling by Spiro[cyclopentane-1,5′-[5H]dibenzo[a,d]cyclohepten]-2-one,10′,11′-t2-10′,11′-dihydro-3-methylene- in rat brain mitochondria. Mitochondria were exposed to DIDS for 5 min before rinsing for removal of the free agent and labeling with Spiro[cyclopentane-1,5′-[5H]dibenzo[a,d]cyclohepten]-2-one,10′,11′-t2-10′,11′-dihydro-3-methylene.
Percoll purified mitochondria (˜30 μg protein per sample) were incubated in the presence of 10 nM Spiro[cyclopentane-1,5′-[5H]dibenzo[a,d]cyclohepten]-2-one,10′,11′-t2-10′,11′-dihydro-3-methylene- in a final volume of 200 μl. After incubation for 15 min at 25° C., samples were centrifuged at 25000×g and the mitochondrial pellet rinsed twice with buffer. Samples were then solubilized in sample buffer containing β-mercaptoethanol (1 h at 37° C.) and subjected to SDS-polyacrylamide gel-electrophoresis (SDS-PAGE) on Tris-glycine Novex pre-cast mini-gels (12% monomer concentration, Invitrogen BV, The Netherlands). After Coomassie Blue staining, gels were processed for fluorography by soaking in Amplify™ (Amersham Biosciences), drying and exposing to X-ray BioMax MS film with BioMax MS intensifying screen (Kodak) at −80° C. for the appropriate time.
as §2, with “Effect” for “FIG. 8: (A) Effect”, “monobromobimano” for “monobromobimano (MBBM)”, “oxide” for “oxide (PhAO)”, “Example 12 (FIG. 8A).” for “the legend to FIG. 5. (B)”, “Spiro[cyclopentane-1,5′-[5H]dibenzo[a,d]cyclohepten]-2-one,10′,11′-t2-10′,11′-dihydro-3-methylene (FIG. 8B).” for “Spiro[cyclopentane-1,5′-[5H]dibenzo[a,d]cyclohepten]-2-one,10′,11′-t2-10′,11′-dihydro-3-methylene.”

T2 sequence (Q9Z2L0 2-283): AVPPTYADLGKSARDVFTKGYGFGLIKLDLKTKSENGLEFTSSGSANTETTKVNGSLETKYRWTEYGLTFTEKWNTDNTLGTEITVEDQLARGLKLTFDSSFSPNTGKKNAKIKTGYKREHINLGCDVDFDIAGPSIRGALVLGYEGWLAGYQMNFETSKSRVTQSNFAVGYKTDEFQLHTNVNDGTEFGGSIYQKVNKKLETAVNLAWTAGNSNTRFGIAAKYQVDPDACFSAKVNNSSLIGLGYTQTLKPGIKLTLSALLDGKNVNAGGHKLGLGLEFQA
Chain of Cyp-D (P30405 30-207): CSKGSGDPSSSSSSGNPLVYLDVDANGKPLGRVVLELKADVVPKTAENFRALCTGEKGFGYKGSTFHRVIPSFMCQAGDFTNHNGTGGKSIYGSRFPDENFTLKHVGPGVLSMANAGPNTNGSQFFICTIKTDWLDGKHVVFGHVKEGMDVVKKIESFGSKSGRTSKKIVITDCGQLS
T3 sequence (Q9Z2L0 whole entry): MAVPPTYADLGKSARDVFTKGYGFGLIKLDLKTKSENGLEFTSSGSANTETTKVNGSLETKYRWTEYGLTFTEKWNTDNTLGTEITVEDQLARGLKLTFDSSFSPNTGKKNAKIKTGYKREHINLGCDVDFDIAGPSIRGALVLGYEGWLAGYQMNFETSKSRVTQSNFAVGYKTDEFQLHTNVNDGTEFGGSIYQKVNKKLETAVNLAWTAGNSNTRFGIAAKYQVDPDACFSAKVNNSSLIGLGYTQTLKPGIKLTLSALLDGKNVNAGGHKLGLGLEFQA

EC50 (MPTP [1]): 370 nM
Inhibition of Cyp-D peptidyl prolyl cis-trans isomerase activity (Cyp-D): did not inhibit
Inhibition of swelling in brain mitochondria (MPTP [3]): inhibited
Ca2+-buffering capacity (MPTP [4]): 1200±120 nmol Ca^2+ mg protein^−1
Inhibition of Ca2+-induced depolarisation (MPTP [5]; 300 nM, 20 μM Ca2+, relieved by 50 μM Ub5): inhibited
Number of Ca2+ additions necessary to induce complete depolarization (MPTP [5]; series of 5 μM Ca2+ additions, membrane potential monitored): increased
Effect of unlabeled compound on labeling of the ~32 kDa band (VDAC1): inhibited
Structure (SMILES): C=C1CCC2(C1=O)c1ccccc1CCc1ccccc12 [Spiro[cyclopentane-1,5′-[5H]dibenzo[a,d]cyclohepten]-2-one,10′,11′-dihydro-3-methylene-]
Inhibition of MPTP induced by ATR (MPTP [2]; ATR 50 μM): inhibited
Inhibition of MPTP induced by phenylarsineoxide (MPTP [2]; phenylarsineoxide 25 μM): inhibited
